In ChEMBL document CHEMBL5696442, “Discovery of type II inhibitors of TGFβ-activated kinase 1 (TAK1) and mitogen-activated protein kinase kinase kinase kinase 2 (MAP4K2)” (J Med Chem, 2015) one finds inhibition data, which are given here for 2 compounds.

What all share (type): cell-based
In assay [1] the target is T1, Serine/threonine-protein kinase Nek9 (Homo sapiens) (UniProt Q8TD19).
T1 sequence (whole entry): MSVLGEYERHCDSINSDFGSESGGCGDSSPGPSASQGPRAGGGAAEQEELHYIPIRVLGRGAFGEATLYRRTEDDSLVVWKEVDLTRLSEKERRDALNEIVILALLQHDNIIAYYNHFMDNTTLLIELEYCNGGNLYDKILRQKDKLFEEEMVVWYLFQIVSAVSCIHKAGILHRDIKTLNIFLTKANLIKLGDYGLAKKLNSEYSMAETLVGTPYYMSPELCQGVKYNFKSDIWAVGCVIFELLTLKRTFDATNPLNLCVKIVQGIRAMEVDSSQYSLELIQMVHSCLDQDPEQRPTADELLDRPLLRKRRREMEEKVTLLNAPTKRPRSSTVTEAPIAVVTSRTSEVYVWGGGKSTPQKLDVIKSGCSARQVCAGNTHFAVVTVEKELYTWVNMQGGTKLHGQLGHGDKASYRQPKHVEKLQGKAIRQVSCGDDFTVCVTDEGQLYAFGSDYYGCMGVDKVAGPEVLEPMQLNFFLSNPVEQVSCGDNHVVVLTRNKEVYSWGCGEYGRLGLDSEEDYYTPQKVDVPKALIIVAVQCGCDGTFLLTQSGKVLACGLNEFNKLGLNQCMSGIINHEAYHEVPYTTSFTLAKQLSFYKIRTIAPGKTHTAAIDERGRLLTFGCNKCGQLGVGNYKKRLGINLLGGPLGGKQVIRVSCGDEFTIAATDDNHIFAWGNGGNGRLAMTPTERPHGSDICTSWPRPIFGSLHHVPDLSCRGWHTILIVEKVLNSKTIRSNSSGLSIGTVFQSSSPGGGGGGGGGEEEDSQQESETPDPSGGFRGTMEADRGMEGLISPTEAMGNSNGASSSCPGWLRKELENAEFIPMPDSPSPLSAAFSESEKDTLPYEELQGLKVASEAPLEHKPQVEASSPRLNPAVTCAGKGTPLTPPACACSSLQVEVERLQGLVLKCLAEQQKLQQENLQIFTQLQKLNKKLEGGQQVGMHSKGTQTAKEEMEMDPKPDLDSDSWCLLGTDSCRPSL
The assay can be described thus: Inhibition of NEK9 Lys2 labeling site in human A-375 cells at 5 uM by KiNativ Profiling analysis relative to control.

Assay [2] addresses Serine/threonine-protein kinase WNK2 (Homo sapiens) (UniProt Q9Y3S1). The assay can be described thus: Inhibition of Wnk2 ACT labeling site in human A-375 cells at 5 uM by KiNativ Profiling analysis relative to control.
In assay [3] the target is T2, Serine/threonine-protein kinase Nek8 (Homo sapiens) (UniProt Q86SG6).
T2 sequence (whole entry): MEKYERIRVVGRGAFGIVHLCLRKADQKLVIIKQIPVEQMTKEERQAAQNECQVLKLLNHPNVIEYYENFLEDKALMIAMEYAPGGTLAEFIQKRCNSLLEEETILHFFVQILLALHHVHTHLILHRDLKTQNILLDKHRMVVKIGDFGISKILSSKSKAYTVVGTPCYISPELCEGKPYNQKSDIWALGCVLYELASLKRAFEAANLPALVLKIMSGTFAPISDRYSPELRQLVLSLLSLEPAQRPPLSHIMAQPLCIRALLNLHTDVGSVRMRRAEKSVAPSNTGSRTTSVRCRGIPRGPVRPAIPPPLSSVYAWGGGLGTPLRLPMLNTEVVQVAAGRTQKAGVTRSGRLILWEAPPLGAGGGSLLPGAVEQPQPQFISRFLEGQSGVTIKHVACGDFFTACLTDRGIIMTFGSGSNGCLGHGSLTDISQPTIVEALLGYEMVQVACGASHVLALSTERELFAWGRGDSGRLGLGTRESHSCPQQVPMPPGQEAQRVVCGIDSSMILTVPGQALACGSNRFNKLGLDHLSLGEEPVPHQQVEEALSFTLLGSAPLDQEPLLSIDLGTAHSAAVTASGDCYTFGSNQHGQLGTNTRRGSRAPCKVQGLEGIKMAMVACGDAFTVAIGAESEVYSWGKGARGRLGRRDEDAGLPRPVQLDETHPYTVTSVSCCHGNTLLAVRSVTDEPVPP
The assay can be described thus: Inhibition of NEK8 Lys2 labeling site in human A-375 cells at 0.5 uM by KiNativ Profiling analysis relative to control.

The target of assay [4] is T3, Serine/threonine-protein kinase LATS2 (Homo sapiens) (UniProt Q9NRM7).
T3 sequence (whole entry): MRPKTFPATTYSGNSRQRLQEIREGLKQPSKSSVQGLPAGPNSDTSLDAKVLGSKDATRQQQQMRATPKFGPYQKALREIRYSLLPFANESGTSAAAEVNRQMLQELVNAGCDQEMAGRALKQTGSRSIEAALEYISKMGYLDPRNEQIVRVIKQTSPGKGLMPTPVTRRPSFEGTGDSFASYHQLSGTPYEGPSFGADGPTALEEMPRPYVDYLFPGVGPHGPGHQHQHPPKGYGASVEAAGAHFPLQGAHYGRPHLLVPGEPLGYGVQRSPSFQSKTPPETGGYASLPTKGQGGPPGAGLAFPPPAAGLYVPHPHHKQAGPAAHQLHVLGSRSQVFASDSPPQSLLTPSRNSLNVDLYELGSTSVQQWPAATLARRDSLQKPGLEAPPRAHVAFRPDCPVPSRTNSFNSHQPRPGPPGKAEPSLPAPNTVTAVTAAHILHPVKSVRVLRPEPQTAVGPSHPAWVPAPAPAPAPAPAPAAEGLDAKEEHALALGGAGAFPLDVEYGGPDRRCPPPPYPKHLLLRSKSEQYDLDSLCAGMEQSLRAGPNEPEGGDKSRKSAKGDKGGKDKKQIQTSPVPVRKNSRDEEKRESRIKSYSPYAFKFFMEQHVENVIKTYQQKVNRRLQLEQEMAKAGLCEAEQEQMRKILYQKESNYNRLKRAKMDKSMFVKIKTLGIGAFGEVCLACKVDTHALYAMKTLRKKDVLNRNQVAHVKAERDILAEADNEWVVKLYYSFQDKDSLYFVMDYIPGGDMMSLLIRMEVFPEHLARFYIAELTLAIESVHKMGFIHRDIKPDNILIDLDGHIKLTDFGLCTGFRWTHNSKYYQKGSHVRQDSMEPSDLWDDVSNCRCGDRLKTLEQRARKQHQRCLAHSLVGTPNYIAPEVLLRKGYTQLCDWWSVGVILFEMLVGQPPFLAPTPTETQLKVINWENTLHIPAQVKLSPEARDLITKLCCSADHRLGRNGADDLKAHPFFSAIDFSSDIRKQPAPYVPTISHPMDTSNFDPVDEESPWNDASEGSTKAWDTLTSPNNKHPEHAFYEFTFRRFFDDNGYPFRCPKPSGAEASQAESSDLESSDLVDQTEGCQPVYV
Nature of the assay: Inhibition of LATS2 Lys2 labeling site in human A-375 cells at 0.05 uM by KiNativ Profiling analysis relative to control.

Assay [5] concerns the target Serine/threonine-protein kinase 38 (Homo sapiens) (UniProt Q15208). The assay can be described thus: Inhibition of NDR1 Lys2 labeling site in human A-375 cells at 0.05 uM by KiNativ Profiling analysis relative to control.

Chain of Serine/threonine-protein kinase WNK2 (Homo sapiens) (Q9Y3S1 whole entry): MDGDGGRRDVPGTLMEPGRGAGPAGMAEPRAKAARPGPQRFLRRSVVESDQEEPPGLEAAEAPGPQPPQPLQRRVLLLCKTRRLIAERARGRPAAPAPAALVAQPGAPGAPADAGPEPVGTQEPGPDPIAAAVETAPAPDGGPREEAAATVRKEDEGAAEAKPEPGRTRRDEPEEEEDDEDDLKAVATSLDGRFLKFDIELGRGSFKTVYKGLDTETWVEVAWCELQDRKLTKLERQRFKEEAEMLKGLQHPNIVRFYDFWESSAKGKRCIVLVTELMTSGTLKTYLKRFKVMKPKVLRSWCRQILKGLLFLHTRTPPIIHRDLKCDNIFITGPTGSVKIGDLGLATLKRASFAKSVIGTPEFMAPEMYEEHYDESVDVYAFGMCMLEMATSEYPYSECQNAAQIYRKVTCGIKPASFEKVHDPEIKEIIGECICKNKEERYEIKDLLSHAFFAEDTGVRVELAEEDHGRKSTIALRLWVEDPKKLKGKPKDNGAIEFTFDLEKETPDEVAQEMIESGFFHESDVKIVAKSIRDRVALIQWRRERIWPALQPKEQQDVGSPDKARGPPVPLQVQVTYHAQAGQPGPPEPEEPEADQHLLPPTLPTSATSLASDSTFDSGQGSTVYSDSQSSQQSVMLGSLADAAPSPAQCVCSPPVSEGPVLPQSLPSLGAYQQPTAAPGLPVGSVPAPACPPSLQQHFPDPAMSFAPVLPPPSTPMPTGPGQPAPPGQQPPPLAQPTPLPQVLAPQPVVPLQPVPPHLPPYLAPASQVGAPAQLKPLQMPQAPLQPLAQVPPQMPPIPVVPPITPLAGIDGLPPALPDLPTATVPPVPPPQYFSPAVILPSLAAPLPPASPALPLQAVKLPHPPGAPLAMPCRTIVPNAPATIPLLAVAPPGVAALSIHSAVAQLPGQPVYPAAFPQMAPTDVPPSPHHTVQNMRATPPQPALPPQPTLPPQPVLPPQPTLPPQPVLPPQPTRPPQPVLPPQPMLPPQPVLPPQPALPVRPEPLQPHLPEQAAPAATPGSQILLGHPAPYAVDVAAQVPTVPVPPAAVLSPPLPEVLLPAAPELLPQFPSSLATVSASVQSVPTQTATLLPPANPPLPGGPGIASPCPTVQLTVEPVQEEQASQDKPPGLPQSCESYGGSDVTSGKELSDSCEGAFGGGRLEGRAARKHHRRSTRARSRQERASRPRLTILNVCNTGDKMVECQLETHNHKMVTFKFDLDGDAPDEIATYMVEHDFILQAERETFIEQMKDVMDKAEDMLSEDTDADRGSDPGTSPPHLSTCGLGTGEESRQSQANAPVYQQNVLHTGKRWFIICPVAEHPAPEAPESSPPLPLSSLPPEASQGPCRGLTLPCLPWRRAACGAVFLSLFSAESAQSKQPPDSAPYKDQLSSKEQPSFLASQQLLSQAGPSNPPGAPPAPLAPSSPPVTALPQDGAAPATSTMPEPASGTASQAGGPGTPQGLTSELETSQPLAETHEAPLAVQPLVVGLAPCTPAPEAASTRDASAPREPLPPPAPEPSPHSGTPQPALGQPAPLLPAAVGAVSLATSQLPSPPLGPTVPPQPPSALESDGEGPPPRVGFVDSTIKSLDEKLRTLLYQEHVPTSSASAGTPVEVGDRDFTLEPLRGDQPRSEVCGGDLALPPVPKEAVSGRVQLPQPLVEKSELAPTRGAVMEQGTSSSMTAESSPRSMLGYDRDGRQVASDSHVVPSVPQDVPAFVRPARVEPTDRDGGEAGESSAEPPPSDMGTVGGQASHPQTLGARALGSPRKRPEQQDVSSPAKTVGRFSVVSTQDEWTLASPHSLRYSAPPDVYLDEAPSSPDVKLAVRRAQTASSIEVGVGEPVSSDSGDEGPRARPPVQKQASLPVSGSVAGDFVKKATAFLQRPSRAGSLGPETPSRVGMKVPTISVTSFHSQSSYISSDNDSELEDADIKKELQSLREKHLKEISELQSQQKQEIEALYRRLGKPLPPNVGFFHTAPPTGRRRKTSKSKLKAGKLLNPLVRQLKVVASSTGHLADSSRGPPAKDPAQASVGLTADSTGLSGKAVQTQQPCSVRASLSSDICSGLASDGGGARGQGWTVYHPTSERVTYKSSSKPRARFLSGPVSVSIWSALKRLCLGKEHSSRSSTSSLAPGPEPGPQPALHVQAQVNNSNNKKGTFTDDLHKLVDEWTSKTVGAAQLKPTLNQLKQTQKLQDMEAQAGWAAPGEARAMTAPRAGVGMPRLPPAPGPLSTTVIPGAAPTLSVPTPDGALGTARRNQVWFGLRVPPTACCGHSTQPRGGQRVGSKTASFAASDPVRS
Chain of Serine/threonine-protein kinase 38 (Homo sapiens) (Q15208 2-465 limits assumed): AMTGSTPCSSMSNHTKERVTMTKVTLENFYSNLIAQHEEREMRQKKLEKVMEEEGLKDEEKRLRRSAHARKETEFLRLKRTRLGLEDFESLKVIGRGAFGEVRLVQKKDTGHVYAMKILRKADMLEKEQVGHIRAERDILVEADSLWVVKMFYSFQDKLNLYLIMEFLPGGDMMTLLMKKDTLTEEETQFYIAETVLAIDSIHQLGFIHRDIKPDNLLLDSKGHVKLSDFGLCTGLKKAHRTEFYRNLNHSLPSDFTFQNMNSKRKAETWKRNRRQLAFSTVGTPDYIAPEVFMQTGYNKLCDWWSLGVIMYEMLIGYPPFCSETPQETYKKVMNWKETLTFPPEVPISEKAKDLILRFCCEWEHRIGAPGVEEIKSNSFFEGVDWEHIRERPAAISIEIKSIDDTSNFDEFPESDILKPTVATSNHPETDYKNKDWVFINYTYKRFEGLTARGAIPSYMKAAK

For orientation: inhibition means the change of the read-out against control, counted positive when it falls. On to `CCN1CCN(Cc2ccc(NC(=O)c3ccc(C)c(/C=C/c4cnc5[nH]ccc5c4OC)c3)cc2C(F)(F)F)CC1`, for which the inhibition in assay [1] was 14.7%; in assay [2], -4.5%; in assay [3], -8.8%; in assay [4], -3.3%; in assay [5] it was 19.2%.

For `CCN1CCN(Cc2ccc(NC(=O)c3ccc(C)c(Oc4ccnc5[nH]ccc45)c3)cc2C(F)(F)F)CC1`, the inhibition was 3.2% in assay [1]; 14.4% in assay [2]; -9.5% in assay [3]; 14.3% in assay [4]; 30% in assay [5].
